Assay results reported in ChEMBL document CHEMBL3885861, “Open TG-GATES”.

Species on record: Rattus norvegicus
Assay: Open TG-GATES - Regimen: Daily Repeat
Format: toxicity, organism-based, Sprague-Dawley
Set-up: regimen Daily Repeat, gender Male, age 6 weeks
Conditions: in vivo, po, route gavage; for APTT / Bas / Eos / Fbg / Hb / Ht / Lym / MCH / MCHC / MCV / Mono / Neu / PT / Plat / RBC / Ret / WBC: tissue Blood; for KIDNEY_L / KIDNEY_R / KIDNEY_TOTAL: tissue Kidney; for LIVER: tissue Liver; for A/G / ALP / ALT / AST / BUN / CRE / Ca / Cl / DBIL / GLC / IP / K / LDH / Na / PL / RALB / TBIL / TC / TG / TP / gamma-GTP: tissue Plasma
[1] = 10 mg/kg, 72 h, dose level Middle, time 3 day
[2] = 10 mg/kg, […], dose level Middle, time 7 day
[3] = 10 mg/kg, […], dose level Middle, time 14 day
[4] = 10 mg/kg, […], dose level Middle, time 28 day
[5] = 30 mg/kg, 72 h, dose level High, time 3 day
[6] = 30 mg/kg, […], dose level High, time 7 day
[7] = 30 mg/kg, […], dose level High, time 14 day
[8] = 30 mg/kg, […], dose level High, time 28 day

## Cn1cnc([N+](=O)[O-])c1Sc1ncnc2nc[nH]c12 [AZATHIOPRINE]
[1]
  TERMINAL_BW: 204.1 g
  APTT: 20.4 s
  Bas: 0%
  Eos: 0.8%
  Fbg: 324.8 mg/dL
  Hb: 13.4 g/dL
  Ht: 39.3%
  Lym: 83.6%
  MCH: 21.4 pg
  MCHC: 33.9%
  MCV: 62.9 fL
  Mono: 2%
  Neu: 12.4%
  PT: 15.7 s
  Plat: 125.8 x10_4/uL
  RBC: 625.6 x10_4/ul
  Ret: 5.2%
  WBC: 72.4 x10_2/uL
  KIDNEY_L: 0.9 g
  KIDNEY_R: 0.9 g
  KIDNEY_TOTAL: 1.9 g
  LIVER: 9.8 g
  A/G: 1.2
  ALP: 1704 IU/L
  ALT: 41.4 IU/L
  AST: 73 IU/L
  BUN: 16.2 mg/dL
  CRE: 0.1 mg/dL
  Ca: 11.2 mg/dL
  Cl: 106.2 meq/L
  DBIL: 0 mg/dL
  GLC: 184.8 mg/dL
  IP: 7.2 mg/dL
  K: 4.2 meq/L
  LDH: 196.8 IU/L
  Na: 143 meq/L
  PL: 148.2 mg/dL
  RALB: 3.1 g/dL
  TBIL: 0.014 mg/dL
  TC: 77.4 mg/dL
  TG: 85.2 mg/dL
  TP: 5.7 g/dL
  gamma-GTP: 1 IU/L
[2]
  TERMINAL_BW: 234.4 g
  APTT: 22.4 s
  Bas: 0%
  Eos: 1%
  Fbg: 325.8 mg/dL
  Hb: 13.7 g/dL
  Ht: 39%
  Lym: 83%
  MCH: 21.5 pg
  MCHC: 35.1%
  MCV: 61.5 fL
  Mono: 2.4%
  Neu: 12.4%
  PT: 15.4 s
  Plat: 143.7 x10_4/uL
  RBC: 635 x10_4/ul
  Ret: 6.2%
  WBC: 81.7 x10_2/uL
  KIDNEY_L: 1 g
  KIDNEY_R: 1 g
  KIDNEY_TOTAL: 2 g
  LIVER: 11.1 g
  A/G: 1.1
  ALP: 1444.2 IU/L
  ALT: 37.8 IU/L
  AST: 69.8 IU/L
  BUN: 18.2 mg/dL
  CRE: 0.1 mg/dL
  Ca: 10.7 mg/dL
  Cl: 105.8 meq/L
  DBIL: 0 mg/dL
  GLC: 193.2 mg/dL
  IP: 6.8 mg/dL
  K: 4.2 meq/L
  LDH: 265.2 IU/L
  Na: 142.8 meq/L
  PL: 166.4 mg/dL
  RALB: 3.1 g/dL
  TBIL: 0 mg/dL
  TC: 89.4 mg/dL
  TG: 104.6 mg/dL
  TP: 6 g/dL
  gamma-GTP: 1 IU/L
[3]
  TERMINAL_BW: 294.1 g
  APTT: 21.7 s
  Bas: 0%
  Eos: 0.6%
  Fbg: 333 mg/dL
  Hb: 14 g/dL
  Ht: 40.1%
  Lym: 81.4%
  MCH: 21.1 pg
  MCHC: 35%
  MCV: 60.3 fL
  Mono: 1.6%
  Neu: 14.8%
  PT: 15.6 s
  Plat: 116.8 x10_4/uL
  RBC: 664.6 x10_4/ul
  Ret: 4.2%
  WBC: 93.4 x10_2/uL
  KIDNEY_L: 1.1 g
  KIDNEY_R: 1.2 g
  KIDNEY_TOTAL: 2.3 g
  LIVER: 13.4 g
  A/G: 1.1
  ALP: 1327.6 IU/L
  ALT: 33.4 IU/L
  AST: 62.8 IU/L
  BUN: 17.8 mg/dL
  CRE: 0.2 mg/dL
  Ca: 11.3 mg/dL
  Cl: 105.2 meq/L
  DBIL: 0 mg/dL
  GLC: 200.2 mg/dL
  IP: 6.8 mg/dL
  K: 4 meq/L
  LDH: 161 IU/L
  Na: 143 meq/L
  PL: 174.4 mg/dL
  RALB: 3.2 g/dL
  TBIL: 0.006 mg/dL
  TC: 93.8 mg/dL
  TG: 93.4 mg/dL
  TP: 6.2 g/dL
  gamma-GTP: 1.8 IU/L
[4]
  TERMINAL_BW: 329.3 g
  APTT: 22.4 s
  Bas: 0%
  Eos: 1.4%
  Fbg: 347.6 mg/dL
  Hb: 11.8 g/dL
  Ht: 34.5%
  Lym: 74%
  MCH: 19.3 pg
  MCHC: 33.9%
  MCV: 56.9 fL
  Mono: 3.2%
  Neu: 19.4%
  PT: 16.5 s
  Plat: 95.9 x10_4/uL
  RBC: 615.2 x10_4/ul
  Ret: 2.4%
  WBC: 54.1 x10_2/uL
  KIDNEY_L: 1.3 g
  KIDNEY_R: 1.3 g
  KIDNEY_TOTAL: 2.6 g
  LIVER: 13.3 g
  A/G: 1.1
  ALP: 971.6 IU/L
  ALT: 82 IU/L
  AST: 182.8 IU/L
  BUN: 20.8 mg/dL
  CRE: 0.2 mg/dL
  Ca: 10.7 mg/dL
  Cl: 107 meq/L
  DBIL: 0.034 mg/dL
  GLC: 169.4 mg/dL
  IP: 6.3 mg/dL
  K: 3.9 meq/L
  LDH: 602 IU/L
  Na: 141.4 meq/L
  PL: 169.6 mg/dL
  RALB: 3.3 g/dL
  TBIL: 0.066 mg/dL
  TC: 102 mg/dL
  TG: 63.4 mg/dL
  TP: 6.4 g/dL
  gamma-GTP: 1.2 IU/L
[5]
  TERMINAL_BW: 201.9 g
  APTT: 19.5 s
  Bas: 0%
  Eos: 0.8%
  Fbg: 327.6 mg/dL
  Hb: 12.7 g/dL
  Ht: 37.9%
  Lym: 86%
  MCH: 21.7 pg
  MCHC: 33.5%
  MCV: 64.7 fL
  Mono: 2.2%
  Neu: 9.4%
  PT: 15.3 s
  Plat: 140.5 x10_4/uL
  RBC: 585.2 x10_4/ul
  Ret: 2.3%
  WBC: 55.5 x10_2/uL
  KIDNEY_L: 0.9 g
  KIDNEY_R: 0.9 g
  KIDNEY_TOTAL: 1.8 g
  LIVER: 9.7 g
  A/G: 1.2
  ALP: 1508.2 IU/L
  ALT: 33 IU/L
  AST: 68.2 IU/L
  BUN: 17.2 mg/dL
  CRE: 0.1 mg/dL
  Ca: 11.3 mg/dL
  Cl: 106 meq/L
  DBIL: 0 mg/dL
  GLC: 185 mg/dL
  IP: 6.8 mg/dL
  K: 4.4 meq/L
  LDH: 199.8 IU/L
  Na: 143 meq/L
  PL: 160.4 mg/dL
  RALB: 3.3 g/dL
  TBIL: 0.008 mg/dL
  TC: 91.8 mg/dL
  TG: 77 mg/dL
  TP: 6 g/dL
  gamma-GTP: 1.4 IU/L
[6]
  TERMINAL_BW: 220 g
  APTT: 21.5 s
  Bas: 0%
  Eos: 1%
  Fbg: 314.4 mg/dL
  Hb: 12.4 g/dL
  Ht: 36%
  Lym: 84.6%
  MCH: 22.1 pg
  MCHC: 34.5%
  MCV: 64.2 fL
  Mono: 1.8%
  Neu: 11.6%
  PT: 15.1 s
  Plat: 192.2 x10_4/uL
  RBC: 561.4 x10_4/ul
  Ret: 4.1%
  WBC: 73.3 x10_2/uL
  KIDNEY_L: 1 g
  KIDNEY_R: 1 g
  KIDNEY_TOTAL: 2 g
  LIVER: 10.9 g
  A/G: 1.1
  ALP: 1412.8 IU/L
  ALT: 29.6 IU/L
  AST: 75.2 IU/L
  BUN: 17.8 mg/dL
  CRE: 0.1 mg/dL
  Ca: 11.3 mg/dL
  Cl: 105.2 meq/L
  DBIL: 0 mg/dL
  GLC: 191.2 mg/dL
  IP: 6.6 mg/dL
  K: 4.1 meq/L
  LDH: 255.6 IU/L
  Na: 142.6 meq/L
  PL: 179.8 mg/dL
  RALB: 3.3 g/dL
  TBIL: 0.01 mg/dL
  TC: 98.2 mg/dL
  TG: 56.4 mg/dL
  TP: 6.2 g/dL
  gamma-GTP: 1 IU/L
[7]
  TERMINAL_BW: 226 g
  APTT: 28.3 s
  Bas: 0%
  Eos: 0.2%
  Fbg: 458.2 mg/dL
  Hb: 12.5 g/dL
  Ht: 35%
  Lym: 85.8%
  MCH: 21.8 pg
  MCHC: 35.6%
  MCV: 61.2 fL
  Mono: 2%
  Neu: 10.6%
  PT: 18.9 s
  Plat: 86.4 x10_4/uL
  RBC: 571.6 x10_4/ul
  Ret: 3%
  WBC: 49.6 x10_2/uL
  KIDNEY_L: 1.1 g
  KIDNEY_R: 1.1 g
  KIDNEY_TOTAL: 2.1 g
  LIVER: 11.5 g
  A/G: 0.9
  ALP: 976.6 IU/L
  ALT: 135 IU/L
  AST: 523.6 IU/L
  BUN: 31.6 mg/dL
  CRE: 0.2 mg/dL
  Ca: 11.2 mg/dL
  Cl: 106.8 meq/L
  DBIL: 0.036 mg/dL
  GLC: 168.8 mg/dL
  IP: 8.4 mg/dL
  K: 4.8 meq/L
  LDH: 1529.2 IU/L
  Na: 142.6 meq/L
  PL: 149.6 mg/dL
  RALB: 3 g/dL
  TBIL: 0.074 mg/dL
  TC: 94.8 mg/dL
  TG: 35.8 mg/dL
  TP: 6.5 g/dL
  gamma-GTP: 1.4 IU/L
[8]
  TERMINAL_BW: 300.4 g
  APTT: 24.3 s
  Bas: 0%
  Eos: 1%
  Fbg: 339.5 mg/dL
  Hb: 12.4 g/dL
  Ht: 35.6%
  Lym: 87%
  MCH: 21.5 pg
  MCHC: 34.9%
  MCV: 61.6 fL
  Mono: 1%
  Neu: 10.5%
  PT: 16.4 s
  Plat: 135.4 x10_4/uL
  RBC: 577.5 x10_4/ul
  Ret: 5.3%
  WBC: 35.2 x10_2/uL
  KIDNEY_L: 1.1 g
  KIDNEY_R: 1.2 g
  KIDNEY_TOTAL: 2.3 g
  LIVER: 12.9 g
  A/G: 1.1
  ALP: 982 IU/L
  ALT: 32 IU/L
  AST: 71.5 IU/L
  BUN: 19 mg/dL
  CRE: 0.2 mg/dL
  Ca: 10.8 mg/dL
  Cl: 106.5 meq/L
  DBIL: 0.01 mg/dL
  GLC: 192.5 mg/dL
  IP: 5.7 mg/dL
  K: 3.9 meq/L
  LDH: 214 IU/L
  Na: 141.5 meq/L
  PL: 138.5 mg/dL
  RALB: 3.4 g/dL
  TBIL: 0.05 mg/dL
  TC: 73 mg/dL
  TG: 42.5 mg/dL
  TP: 6.5 g/dL
  gamma-GTP: 2 IU/L
